Measured values: patent USRE48461E1, “Modulation of androgen receptor expression” (Ionis Pharmaceuticals, Inc., priority 2012, dated 2021)

Key:
Format in all cases: cell-based, human
22RV1 cells [1] = assay: 22RV1 cell proliferation (Example 32); conditions: 5 days; for Proliferation (% untreated control): 22RV1 cells, complete medium
How it was run: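 Cells were treated for 5 days in complete medium. Proliferation was then read with a tetrazolium (AQueous One) or ATP-luminescence (CellTiter-Glo) assay.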

PSA mRNA [2] = assay: PSA expression in LNCaP cells (complete, CSS+DHT medium); conditions: for Percent inhibition of PSA expression in LNCaP cells cultured in CSS + DHT medium: CSS + DHT (1 nM) medium, 48 hrs; for Percent inhibition of PSA expression in LNCaP cells cultured in complete medium: 48 hours
How it was run: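 LNCaP cells treated with antisense oligonucleotides, ISIS 549148 as negative control; AR, PSA and TMPRSS2 RNA measured after 48 h. Complete medium used 1,000 cells/well; stripped-serum condition used 2,000 cells/well in phenol red-free RPMI with 5% charcoal-stripped serum, with 1 nM DHT (final) added 4 h after treatment.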

C4-2B cells = assay: C4-2B cell proliferation (complete or CSS+DHT medium; Example 30); conditions: 5 days; for Proliferation (% untreated control): C4-2B cells
Description: After a treatment period of 5 days in complete medium or CSS+1 nM DHT medium, the proliferative capacity of the cancer cells was measured with using CellTiter 96® AQueous One or CellTiter-Glo® Solution Cell Proliferation kit (Promega), following the manufacturer's instructions.

PSA mRNA [3] = assay: PSA expression in C4-2 cells; conditions: 48 hrs; for Percent inhibition of PSA expression: C4-2 cells, CSS + DHT medium
Description: Cells were plated at 1,000 cells per well. […] After an incubation period of 48 hrs, RNA levels of AR, PSA and TMPRSS2 were measured.
Cells were plated at 2,000 cells per well and cultured in CSS media with 1 nM DHT. […] After an incubation period of 48 hrs, RNA levels of AR, PSA and TMPRSS2 were measured.

22RV1 cells [4] = assay: 22RV1 apoptosis (Caspase-glo 3/7); conditions: 72 hours; for Apoptosis (% untreated control): 22RV1 cells
Description: After a treatment period of 72 hours in complete medium or CSS+DHT medium, apoptosis of the cancer cells was measured with Caspase-glo 3/7 assay kit (Promega). Results are presented in Tables 131 and 132 as percent apoptosis of the cells, relative to non-treated cells.

full length AR mRNA = assay: Full-length AR RNA in 22RV1 cells (complete, CSS+DHT medium); conditions: RNAiMax, 48 hrs
Description: Cells were plated at 1,000 cells per well. […] After an incubation period of 48 hrs, RNA levels of full length AR, the V7 variant, PSA and TMPRSS2 were measured.
After an incubation period of 48 hrs, RNA levels of full length AR, the V7 variant, PSA and TMPRSS2 were measured.
Cells were plated at 2,000 cells per well and cultured in CSS media for 16 hours. […] After 4 hrs, 1 nM DHT was added. […] After an incubation period of 48 hrs, RNA levels of AR, AR V7 variant, PSA and TMPRSS2 were measured.

AR mRNA = assay: AR RNA expression in LNCaP cells (complete, CSS, CSS+DHT medium); conditions: for Percent expression of AR in LNCaP cells cultured in CSS + DHT medium: CSS + DHT (1 nM) medium; for Percent expression of AR in LNCaP cells cultured in CSS + DHT medium / Percent expression of AR in LNCaP cells cultured in CSS medium: 48 hrs; for Percent expression of AR in LNCaP cells cultured in complete medium: 48 hours
PSA mRNA [5] = assay: PSA expression in 22RV1 cells; conditions: RNAiMax, 48 hrs
How it was run: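 In 22RV1 cells, full-length AR, AR-V7, PSA and TMPRSS2 RNA measured after 48 h compound incubation. Complete-medium format used 1,000 cells/well; CSS+DHT format used 2,000 cells/well cultured 16 h in CSS medium, with 1 nM DHT added after 4 h.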

cleaved PARP = assay: Cleaved PARP western blot in VCaP cells

## TGATTTAATGGTTGCA [ISIS 569236] (cEt/MOE gapmer chemistry, further chemistry not given here) [targets intron 1]
22RV1 cells [1]; 1.34 nM
  Proliferation (% untreated control): 92 % untreated control
22RV1 cells [1]; 4.0 nM
  Proliferation (% untreated control): 53 % untreated control
22RV1 cells [1]; 13.4 nM
  Proliferation (% untreated control): 20 % untreated control
22RV1 cells [1]; 40 nM
  Proliferation (% untreated control): 7 % untreated control
22RV1 cells [1]
  proliferation of 22RV1 cells: reduced proliferation of the cells in a dose dependent compared to the control
PSA mRNA [2]; 0.04 μM
  Percent inhibition of PSA expression in LNCaP cells cultured in CSS + DHT medium: 4%
  Percent inhibition of PSA expression in LNCaP cells cultured in complete medium: 0%
PSA mRNA [2]; 0.2 μM
  Percent inhibition of PSA expression in LNCaP cells cultured in CSS + DHT medium: 11%
  Percent inhibition of PSA expression in LNCaP cells cultured in complete medium: 19%
PSA mRNA [2]; 1 μM
  Percent inhibition of PSA expression in LNCaP cells cultured in CSS + DHT medium: 45%
  Percent inhibition of PSA expression in LNCaP cells cultured in complete medium: 63%
PSA mRNA [2]; 5.0 μM
  Percent inhibition of PSA expression in LNCaP cells cultured in CSS + DHT medium: 59%
  Percent inhibition of PSA expression in LNCaP cells cultured in complete medium: 81%
C4-2B cells; CSS + DHT medium, 0.04 μM
  Proliferation (% untreated control): 109 % untreated control
C4-2B cells; CSS + DHT medium, 0.2 μM
  Proliferation (% untreated control): 109 % untreated control
C4-2B cells; CSS + DHT medium, 1 μM
  Proliferation (% untreated control): 67 % untreated control
C4-2B cells; CSS + DHT medium, 5.0 μM
  Proliferation (% untreated control): 39 % untreated control
C4-2B cells; complete medium, 0.04 μM
  Proliferation (% untreated control): 98 % untreated control
C4-2B cells; complete medium, 0.2 μM
  Proliferation (% untreated control): 64 % untreated control
C4-2B cells; complete medium, 1 μM
  Proliferation (% untreated control): 55 % untreated control
C4-2B cells; complete medium, 5.0 μM
  Proliferation (% untreated control): 48 % untreated control
C4-2B cells; complete medium or CSS+1 nM DHT
  proliferation of C4-2B cells: reduced proliferation of the cells in a dose dependent compared to the control
PSA mRNA [3]; 0.04 μM
  Percent inhibition of PSA expression: 0%
  Percent inhibition of PSA expression in C4-2 cells cultured in complete medium: 35%
PSA mRNA [3]; 0.2 μM
  Percent inhibition of PSA expression: 4%
  Percent inhibition of PSA expression in C4-2 cells cultured in complete medium: 62%
PSA mRNA [3]; 1 μM
  Percent inhibition of PSA expression: 57%
  Percent inhibition of PSA expression in C4-2 cells cultured in complete medium: 83%
PSA mRNA [3]; 5.0 μM
  Percent inhibition of PSA expression: 64%
  Percent inhibition of PSA expression in C4-2 cells cultured in complete medium: 88%
22RV1 cells [4]; CSS + DHT medium, 1.34 nM
  Apoptosis (% untreated control): 127 % untreated control
22RV1 cells [4]; CSS + DHT medium, 4.0 nM
  Apoptosis (% untreated control): 106 % untreated control
22RV1 cells [4]; CSS + DHT medium, 13.4 nM
  Apoptosis (% untreated control): 257 % untreated control
22RV1 cells [4]; CSS + DHT medium, 40 nM
  Apoptosis (% untreated control): 1136 % untreated control
22RV1 cells [4]; complete medium, 1.34 nM
  Apoptosis (% untreated control): 91 % untreated control
22RV1 cells [4]; complete medium, 4.0 nM
  Apoptosis (% untreated control): 141 % untreated control
22RV1 cells [4]; complete medium, 13.4 nM
  Apoptosis (% untreated control): 333 % untreated control
22RV1 cells [4]; complete medium, 40 nM
  Apoptosis (% untreated control): 1452 % untreated control
22RV1 cells [4]; complete or CSS+DHT medium
  apoptosis of 22RV1 cells: increased apoptosis of the cells in a dose dependent compared to the control
Full length AR mRNA; CSS + DHT medium, 1.34 nM
  Percent inhibition of full-length AR: 59%
Full length AR mRNA; CSS + DHT medium, 4.0 nM
  Percent inhibition of full-length AR: 89%
Full length AR mRNA; CSS + DHT medium, 13.4 nM
  Percent inhibition of full-length AR: 97%
Full length AR mRNA; complete medium, 1.34 nM
  Percent inhibition of full-length AR: 17%
Full length AR mRNA; complete medium, 4.0 nM
  Percent inhibition of full-length AR: 15%
Full length AR mRNA; complete medium, 13.4 nM
  Percent inhibition of full-length AR: 37%
Full length AR mRNA; complete medium, 40 nM
  Percent inhibition of full-length AR: 71%
AR mRNA; 0.04 μM
  Percent expression of AR in LNCaP cells cultured in CSS + DHT medium: 104%
  Percent expression of AR in LNCaP cells cultured in CSS medium: 94%
  Percent expression of AR in LNCaP cells cultured in complete medium: 98%
AR mRNA; 0.2 μM
  Percent expression of AR in LNCaP cells cultured in CSS + DHT medium: 86%
  Percent expression of AR in LNCaP cells cultured in CSS medium: 66%
  Percent expression of AR in LNCaP cells cultured in complete medium: 90%
AR mRNA; 1 μM
  Percent expression of AR in LNCaP cells cultured in CSS + DHT medium: 55%
  Percent expression of AR in LNCaP cells cultured in CSS medium: 35%
  Percent expression of AR in LNCaP cells cultured in complete medium: 47%
AR mRNA; 5.0 μM
  Percent expression of AR in LNCaP cells cultured in CSS + DHT medium: 21%
  Percent expression of AR in LNCaP cells cultured in CSS medium: 13%
  Percent expression of AR in LNCaP cells cultured in complete medium: 20%
PSA mRNA [5]; CSS + DHT medium, 1.34 nM
  Percent inhibition of PSA expression: 28%
PSA mRNA [5]; CSS + DHT medium, 4.0 nM
  Percent inhibition of PSA expression: 49%
PSA mRNA [5]; CSS + DHT medium, 13.4 nM
  Percent inhibition of PSA expression: 70%
PSA mRNA [5]; complete medium, 1.34 nM
  Percent inhibition of PSA expression: 0%
PSA mRNA [5]; complete medium, 4.0 nM
  Percent inhibition of PSA expression: 17%
PSA mRNA [5]; complete medium, 13.4 nM
  Percent inhibition of PSA expression: 25%
PSA mRNA [5]; complete medium, 40 nM
  Percent inhibition of PSA expression: 7%
Cleaved PARP
  cleaved PARP levels (western blot): increased in a dose-dependent manner
